Measurements from patent US4069317A, “N^2 -Arylsulfonyl-L-argininamides and the pharmaceutically acceptable salts thereof” (Mitsubishi Chemical Industries Ltd., priority 1974, dated 1978).

Experiments:
thrombin = molecular target: T1, thrombin (Bos taurus, UniProt P00735); assay: fibrinogen coagulation time; format: biochemical; details: bovine fibrinogen, thrombin 5 units/ml, borate saline buffer pH 7.4, 25° C; control coagulation time 50-55 seconds
T1 construct: purchased Mochida Pharmaceutical Co., Ltd
Method: The measurement of the fibrinogen coagulation time was conducted as follows:
Immediately after mixing, the reaction mixture was transferred from the ice bath to a bath maintained at 25° C. Coagulation times were taken as the period between the time of transference to the 25° C bath and the time of the first appearance of fibrin threads.
The term "concentration required to prolong the coagulation time by a factor of two" is the concentration of an active ingredient required to prolong the normal coagulation time 50-55 seconds to 100-110 seconds.

mice = assay: acute toxicity (LD50), intraperitoneal administration in mice; format: in vivo; details: mice (male, 20 g)
Text: Representative LD50 values, for example, for N^2 -(6,7-dimethoxy-2-naphthylsulfonyl)-L-arginyl-N-butylalanine and N^2 -(4,6-dimethoxy-2-naphthylsulfonyl)-L-arginyl-N-cyclohexylmethylalanine are above 1,500 milligrams per kilogram each.

| Concentration required to prolong the coagulation time by a factor of two (thrombin) | SMILES | acute toxicity LD50 (mice) |
| --- | --- | --- |
| 5 µM | COCCN(C(=O)[C@H](CCCNC(=N)N)NS(=O)(=O)c1ccc2cc(OC)c(OC)cc2c1)[C@@H](C)C(=O)O [Sample 15, N^2-(6,7-dimethoxy-2-naphthylsulfonyl)-L-arginyl-N-(2-methoxyethyl)alanine] | – |
| 1.5 µM | COc1cc2ccc(S(=O)(=O)N[C@@H](CCCNC(=N)N)C(=O)N(CCc3ccccc3)[C@@H](C)C(=O)O)cc2cc1OC [Sample 8, N^2-(6,7-dimethoxy-2-naphthylsulfonyl)-L-arginyl-N-phenethylalanine] | – |
| 15 µM | CCC[C@H](NC(=O)[C@H](CCCNC(=N)N)NS(=O)(=O)c1ccc2cc(OC)c(OC)cc2c1)C(=O)O [Sample 21, N^2-(6,7-dimethoxy-2-naphthylsulfonyl)-L-arginylnorvaline] | – |
| 2.5 µM | COc1ccc2ccc(S(=O)(=O)N[C@@H](CCCNC(=N)N)C(=O)N(C)[C@@H](Cc3ccccc3)C(=O)O)cc2c1 [Sample 20, N^2-(7-methoxy-2-naphthylsulfonyl)-L-arginyl-N-methylphenylalanine] | – |
| 2 µM | COc1cc2ccc(S(=O)(=O)N[C@@H](CCCNC(=N)N)C(=O)N(C)[C@@H](Cc3ccccc3)C(=O)O)cc2cc1OC [Sample 18, N^2-(6,7-dimethoxy-2-naphthylsulfonyl)-L-arginyl-N-methylphenylalanine] | – |

Second part, the compound before the results:

| SMILES | Concentration required to prolong the coagulation time by a factor of two (thrombin) | acute toxicity LD50 (mice) |
| --- | --- | --- |
| CCCCN(C(=O)[C@H](CCCNC(=N)N)NS(=O)(=O)c1ccc2cc(OC)c(OC)cc2c1)[C@@H](C)C(=O)O [Sample 2, N^2-(6,7-dimethoxy-2-naphthylsulfonyl)-L-arginyl-N-butylalanine] | – | above 1,500 milligrams per kilogram |
| COc1cc2ccc(S(=O)(=O)N[C@@H](CCCNC(=N)N)C(=O)N(Cc3ccccc3)[C@@H](C)C(=O)O)cc2cc1OC [Sample 6, N^2-(6,7-dimethoxy-2-naphthylsulfonyl)-L-arginyl-N-benzylalanine] | 2.5 µM | – |
| CCCCCN(C(=O)[C@H](CCCNC(=N)N)NS(=O)(=O)c1ccc2cc(OC)c(OC)cc2c1)[C@@H](C)C(=O)O [Sample 4, N^2-(6,7-dimethoxy-2-naphthylsulfonyl)-L-arginyl-N-pentylalanine] | 2.0 µM | – |
| CCCCNC(=O)[C@H](CCCNC(=N)N)NS(=O)(=O)c1cccc2c(N(C)C)cccc12 [N^2 -dansyl-N-butyl-L-argininamide, reference compound] | – | 75 milligrams per kilogram |
| CCCCN(C)C(=O)[C@H](CCCNC(=N)N)NS(=O)(=O)c1cccc2c(N(C)C)cccc12 [N^2 -dansyl-N-methyl-N-butyl-L-argininamide, reference compound] | – | 70 milligrams per kilogram |
| COc1ccc2cc(S(=O)(=O)N[C@@H](CCCNC(=N)N)C(=O)N(CC3CCCCC3)[C@@H](C)C(=O)O)cc(OC)c2c1 [Sample 12, N^2-(4,6-dimethoxy-2-naphthylsulfonyl)-L-arginyl-N-cyclohexylmethylalanine] | 4.5 µM | above 1,500 milligrams per kilogram |
